Key:
[1] = Acute oral toxicity in rats (LD50, Lichtfield and Wilcoxon); conditions: rat, in vivo, rats p.o. (table)
Method: The toxicities were determined according to Lichtfield and Wilcoxon, Journ. Pharm. Expt. Ther., 96, 99, 1949.

[2] = system: carrageenin induced edema; experiment: Carrageenin induced edema in the rat paw; assay type: in vivo; conditions: dosage around 1/5 of its LD50
Method: (§1) The antiinflammatory activity was ascertained by means of several testing methods; in one, the ability of the compounds of the invention to reduce the edema induced in the rat paw by injection of carrageenin was evaluated and the test was performed according to the methodology described by C. A. Winter et al. in Proc. Soc. Exptl. Biol. Med. 111, 544, (1962). In another it was investigated the reduction by the test compounds of the weight of the granuloma formed on a cotton pellet implanted subcutaneously in a rat, following the method described by Meier et al. in Experientia 6, 469, (1950).
(§2) Representative experiments have shown that the compounds of Example 11, namely 2,3-dihydro-6-methoxy-N,2-dimethyl-4-benzofuranamine causes a reduction of the carrageenin induced edema of around 70 percent over the controls even when it is administered at an absolutely safe dosage i.e., around 1/5 of its LD50. In the granuloma cotton pellet test the same compound at the same dosage reduces the weight of the granuloma of more than 40 percent again over the controls.

[3] = system: granuloma formed on a cotton pellet implanted subcutaneously; experiment: Granuloma cotton pellet test; assay type: in vivo; conditions: rat; same dosage, around 1/5 of its LD50
Method: as §1, §2

[4] = system: adjuvant induced arthritis; experiment: Adjuvant induced arthritis test in rats; assay type: in vivo; conditions: for % reduction of the volume of the hind paws over the controls: rats p.o., Dose 200 mg/kg
Text: However, the most important pharmacological aspect of the compounds of the present invention is that they are effective also in the adjuvant induced arthritis test in rats. Said test is absolutely meaningful in that adjuvant arthritis is one of the best pharmacological parameters with which a pharmacologist can investigate compounds as to their possible antinflammatory activity, owing to the parallelism of effects existing between it and some articulation diseases observed in humans (see Pearson, C. M., Arthritis and allied conditions, page 119, Lea and Febiger Publ., 1967 and Pearson, C. M., J. Chronic Diseases, 16, 863, 1963).
The adjuvant induced arthritis test was performed as described by B. B. Newbould in Brit. Jour. Pharmacol., 21, 127, (1963). The measure of effectiveness of the compounds in this test is given by their ability in reducing the volume of the hind paws of the laboratory animals. […] The obtained results, which are summarized in the following table, were obtained by testing the compounds at a dosage corresponding to 1/5 of their LD50.

Row | SMILES | LD50 [1] [mg/kg] | reduction of the carrageenin induced edema over the controls [2] | reduction of the weight of the granuloma over the controls [3] | % reduction of the volume of the hind paws over the controls [4] [%] | activity in the adjuvant induced arthritis test compared with acetylsalicylic acid ([4]; rats, dosage corresponding to 1/5 of their LD50)
1 | CNc1cc(OC)cc2c1CC(C)O2 (stereo not drawn) [Example 11, 2,3-dihydro-6-methoxy-N,2-dimethyl-4-benzofuranamine] | 2800 | around 70% | more than 40% | 36 | significantly more active
2 | CC(=O)Oc1ccccc1C(=O)O [acetylsalicylic acid, reference compound] | – | – | – | 25 | –
